# Test results reported in US20250296960A1, “PEPTIDE COMPOSITIONS AND METHODS OF USE THEREOF” (priority 2022, published 2025).
# Numbered stars: 1 amine (or outer) side, 2 acyl side, 3 side chain; on linkers, the order of the positions; unused ones are H or OH. Square brackets hold non-standard residues; d marks the D form. Side chains are listed from the residue outwards. Ends that are not written are not given here. * marks the point of attachment. C18 = C18 fatty acid (C16-C22 fatty acids conjugated via γGlu/8-amino-3,6-dioxaoctanoic acid spacers); C20 diacid = O=C(O)CCCCCCCCCCCCCCCCCCC(=O)*; γGlu = O=C(O)[C@H](CCC(=O)[*:2])N[*:1]; αMeL = CC(C)C[C@](C)(N)C(=O)O; AEEA = NCCOCCOCC(=O)O; Aib = CC(C)(N)C(=O)O
# Key:
# [1] = Body weight loss in normal C57BL/6 mice, subcutaneous dosing; format: in vivo; details: for Weight loss (%): normal mice
# Experimental: To confirm the therapeutic effect of the peptide in vivo, polypeptides were administered to mice to measure changes in body weight. […] The peptides were delivered at 0.02% polysorbate 80 (PS80) in PBS and dosing volume was 10 mL/kg. Body weight was monitored 6 h, QD.
# To confirm the therapeutic effect of the peptide in obesity, diabetes, or NASH, polypeptides were administered to mice to measure changes in food intake, blood glucose and body weight. […] In addition, a NASH animal model was prepared by feeding a high fat, high fructose, high cholesterol diet to normal C57BL/6 mice (approximately 6 weeks old) for approximately 21 weeks, and increasing the body weights of the mice to approximately 50 g on average. Thereafter, polypeptides were administered by subcutaneous injection at dose of 20 nmol/kg once every other day for 2 weeks. Body weight and food intake were measured once every other day given points of time. After 2 weeks of treatment period, mice were sacrificed, then liver weight, hepatic triglyceride, and NASH related biomarkers were measured.
# DD01 administered at 40 nmol/kg, s.c. Q2D as positive control was delivered at 0.02% PS80 in PBS and dosing volume was 10 mL/kg. Body weight was monitored QD for 4 days.
# The peptides were delivered at 0.02% PS80 in PBS and dosing volume was 10 mL/kg. Food intake, blood glucose, and body weight changes were monitored QD.
# [2] = target: T1, human GLP-1R (Homo sapiens, UniProt P43220); assay: cAMP assay (HitHunter cAMP) in GLP-1R-expressing CHO-K1 cells (GLP-1R+ cells); format: cell-based
# T1 construct: host or cells: CHO-K1
# Experimental: (§1) The cells were seeded in a 96-well plate at 7×10^3 cells/well using cell plate reagent and incubated the cells overnight at 37° C. and 5% CO2. To perform the cAMP detection assay, cell plating reagent were replaced with the cAMP Assay buffer. Each of the wells was then treated with the diluted peptide and incubated for 30 minutes under conditions of a temperature of 37° C. in a CO2 incubator.
# (§2) After the incubation, cAMP Antibody reagent and Working cAMP detection solution to all wells. Incubate the plate for 1 hour at Room temperature in the dark. Then, cAMP Solution A was added and incubated for 3 hours at room temperature in the dark. Subsequently, the luminescence was measured using the microplate reader device.
# [3] = target: T2, human GCGR (Homo sapiens, UniProt P47871); assay: cAMP assay (HitHunter cAMP) in GCGR-expressing CHO-K1 cells (GCGR+ cells); format: cell-based
# T2 construct: host or cells: CHO-K1
# Experimental: as §1, §2
# [4] = target: T3, human GIPR (Homo sapiens, UniProt P48546); assay: cAMP assay (HitHunter cAMP) in GIPR-expressing CHO-K1 cells (GIPR+ cells); format: cell-based
# T3 construct: host or cells: CHO-K1
# T3 sequence (P48546 22-466): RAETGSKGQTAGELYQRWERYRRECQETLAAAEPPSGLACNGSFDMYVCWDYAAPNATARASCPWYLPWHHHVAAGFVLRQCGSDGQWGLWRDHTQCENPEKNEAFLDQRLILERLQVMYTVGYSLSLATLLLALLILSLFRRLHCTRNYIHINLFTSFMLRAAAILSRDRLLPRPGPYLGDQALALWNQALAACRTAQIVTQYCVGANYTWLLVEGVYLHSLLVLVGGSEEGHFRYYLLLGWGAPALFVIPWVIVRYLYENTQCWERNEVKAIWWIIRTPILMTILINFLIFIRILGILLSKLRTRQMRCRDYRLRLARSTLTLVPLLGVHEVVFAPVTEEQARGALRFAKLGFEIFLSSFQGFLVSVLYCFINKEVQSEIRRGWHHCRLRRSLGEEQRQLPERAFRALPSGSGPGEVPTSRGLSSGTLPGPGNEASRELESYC
# Experimental: as §1, §2
# [5] = 20 nmol/kg QD, after 48 or 72 hours
# [6] = 20 nmol/kg QD, Weight loss at 48 hr
# [7] = Table 13, EC50 of STD peptide over EC50 of peptide
# [8] = Table 14, normalised to activity at GLP-1R
# T2 sequence (P47871 26-477): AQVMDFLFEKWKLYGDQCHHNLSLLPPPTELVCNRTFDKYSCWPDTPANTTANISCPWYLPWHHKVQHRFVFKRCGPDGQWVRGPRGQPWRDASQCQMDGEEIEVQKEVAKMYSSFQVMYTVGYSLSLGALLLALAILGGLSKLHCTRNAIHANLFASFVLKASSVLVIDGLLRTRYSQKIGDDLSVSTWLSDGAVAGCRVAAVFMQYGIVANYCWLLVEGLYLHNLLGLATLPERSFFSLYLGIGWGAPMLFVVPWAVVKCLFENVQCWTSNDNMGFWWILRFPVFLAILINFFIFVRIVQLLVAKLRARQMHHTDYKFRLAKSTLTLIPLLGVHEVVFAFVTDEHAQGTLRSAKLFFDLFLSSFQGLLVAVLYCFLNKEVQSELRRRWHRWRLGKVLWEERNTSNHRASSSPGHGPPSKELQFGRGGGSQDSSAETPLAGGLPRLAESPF
# T1 sequence (P43220 24-463): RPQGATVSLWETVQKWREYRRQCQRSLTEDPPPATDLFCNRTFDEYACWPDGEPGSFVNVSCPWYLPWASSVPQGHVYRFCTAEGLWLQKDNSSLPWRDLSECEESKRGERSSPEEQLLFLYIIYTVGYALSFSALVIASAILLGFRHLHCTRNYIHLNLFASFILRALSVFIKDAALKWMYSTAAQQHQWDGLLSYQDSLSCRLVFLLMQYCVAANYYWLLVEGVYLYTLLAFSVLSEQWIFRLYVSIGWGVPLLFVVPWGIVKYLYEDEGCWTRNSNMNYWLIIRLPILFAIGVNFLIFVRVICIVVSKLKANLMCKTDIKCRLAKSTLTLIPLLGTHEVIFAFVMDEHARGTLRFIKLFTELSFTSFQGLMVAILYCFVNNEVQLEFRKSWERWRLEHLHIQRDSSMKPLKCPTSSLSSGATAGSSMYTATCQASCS
molecule,measurement,setting,value
12-7A: Peptide No. 12-7 lipidated via conjugation to C-terminal cysteine (type A) (H[Aib]EGTFTSDWSKYLDQQMAQDFVDWLINGGPSSGAPPPSC([AEEA-AEEA-γGlu-C18])-NH2),Weight loss (%),[1]; [5],9.5 ± 3.0%
12-3A: Peptide No. 12-3 lipidated via conjugation to C-terminal cysteine (type A) (Y[Aib]QGTFTSDWSKYLDQQMQQDFVDWLLNGGPSSGAPPPSC([AEEA-AEEA-γGlu-C18])-NH2),Weight loss (%),[1]; [5],0.2 ± 1.8%
12-1A: Peptide No. 12-1 lipidated via conjugation to C-terminal cysteine (type A) (Y[Aib]QGTFTSDWSKYLDQQMAQDFVDWLINGGPSSGAPPPSC([AEEA-AEEA-γGlu-C18])-NH2),Weight loss (%),[1]; [5],9.0 ± 2.2%
"YAibQGT FTSDY SKYLD YK*MAR DFVQW LIEGG PSSGA PPPS (Y[Aib]QGTFTSDYSKYLDYK([AEEA-AEEA-γGlu-C18])MARDFVQWLIEGGPSSGAPPPS-NH2) [5-1F, K* = lysine lipidated with 2OEG-γGlu-C18]",Weight loss (%),[1]; [6],21.9 ± 2.5%
5-3A: Peptide No. 5-3 lipidated via conjugation to C-terminal cysteine (type A) (Y[Aib]QGTFTSDYSKLLDYMMQRDFVQWLLEGGPSSGAPPPSC([AEEA-AEEA-γGlu-C18])-NH2),"body weight loss effect, in words","[1]; Example 5, 20 nmol/kg s.c. QD, 4 days",least effect
same,Weight loss (%),[1]; [5],5.5 ± 1.6%
"CC[C@H](C)[C@H](NC(=O)[C@H](CC(C)C)NC(=O)[C@H](Cc1c[nH]c2ccccc12)NC(=O)[C@H](CCC(N)=O)NC(=O)[C@@H](NC(=O)[C@H](Cc1ccccc1)NC(=O)[C@H](CC(=O)O)NC(=O)[C@H](CCCNC(=N)N)NC(=O)[C@H](C)NC(=O)[C@H](CCSC)NC(=O)[C@H](CCSC)NC(=O)[C@H](Cc1ccc(O)cc1)NC(=O)[C@H](CC(=O)O)NC(=O)[C@H](CC(C)C)NC(=O)[C@H](Cc1ccc(O)cc1)NC(=O)[C@H](CCCCNC(=O)CCCC[C@@H]1SC[C@@H]2NC(=O)N[C@@H]21)NC(=O)[C@H](CO)NC(=O)[C@H](Cc1ccc(O)cc1)NC(=O)[C@H](CC(=O)O)NC(=O)[C@H](CO)NC(=O)[C@@H](NC(=O)[C@H](Cc1ccccc1)NC(=O)[C@@H](NC(=O)CNC(=O)[C@H](CCC(N)=O)NC(=O)C(C)(C)NC(=O)[C@@H](N)Cc1c[nH]cn1)[C@@H](C)O)[C@@H](C)O)C(C)C)C(=O)N[C@@H](CCC(=O)O)C(=O)NCC(=O)NCC(=O)N1CCC[C@H]1C(=O)N[C@@H](CO)C(=O)N[C@@H](CO)C(=O)NCC(=O)N[C@@H](C)C(=O)N1CCC[C@H]1C(=O)N1CCC[C@H]1C(=O)N1CCC[C@H]1C(=O)N[C@@H](CO)C(=O)N[C@@H](CSC1CC(=O)N(CCNC(=O)COCCOCCNC(=O)COCCOCCNC(=O)CC[C@H](NC(=O)CCCCCCCCCCCCCCCCC(=O)O)C(=O)O)C1=O)C(N)=O (stereo partly shown) [5B, HAibQGT FTSDY SB*YLD YMMARDFVQWLIEGGPSSGAPPPSC*]","Activity relative to STD peptide (%), GLP-1",[2]; [7],87%
same,"Activity relative to GLP-1 (%), GLP-1",[2]; [8],100%
same,"Activity relative to STD peptide (%), Glucagon",[3]; [7],5%
same,"Activity relative to GLP-1 (%), Glucagon",[3]; [8],6%
same,"Activity relative to STD peptide (%), GIP",[4]; [7],2%
same,"Activity relative to GLP-1 (%), GIP",[4]; [8],2%
12-4A: Peptide No. 12-4 lipidated via conjugation to C-terminal cysteine (type A) (H[Aib]QGTFTSDWSKYLDQQMQQDFVDWLINGGPSSGAPPPSC([AEEA-AEEA-γGlu-C18])-NH2),Weight loss (%),[1]; [5],4.3 ± 0.9%
12-5A: Peptide No. 12-5 lipidated via conjugation to C-terminal cysteine (type A) (H[Aib]QGTFTSDWSKYLDQQMQQDFVDWLLNGGPSSGAPPPSC([AEEA-AEEA-γGlu-C18])-NH2),Weight loss (%),[1]; [5],5.4 ± 0.9%
12-2A: Peptide No. 12-2 lipidated via conjugation to C-terminal cysteine (type A) (Y[Aib]QGTFTSDWSKYLDQQMQQDFVDWLINGGPSSGAPPPSC([AEEA-AEEA-γGlu-C18])-NH2),Weight loss (%),[1]; [5],2.0 ± 0.9%
"Y-Aib-QGTFTSDYSI-αMeL-LDKK((2-[2-(2-amino-ethoxy)-ethoxy]-acetyl)-(γGlu)-CO-(CH2)18-CO2H)AQ-Aib-AFIEYLLE-Aib-GPSS-Aib-APPPS-NH2 (Y[Aib]QGTFTSDYSI[αMeL]LDKK([AEEA-γGlu-C20 diacid])AQ[Aib]AFIEYLLE[Aib]GPSS[Aib]APPPS-NH2; N-terminus assumed; SMILES CC[C@H](C)[C@H](NC(=O)[C@H](Cc1ccccc1)NC(=O)[C@H](C)NC(=O)C(C)(C)NC(=O)[C@H](CCC(N)=O)NC(=O)[C@H](C)NC(=O)[C@H](CCCCNC(=O)COCCOCCNC(=O)CC[C@H](NC(=O)CCCCCCCCCCCCCCCCCCC(=O)O)C(=O)O)NC(=O)[C@H](CCCCN)NC(=O)[C@H](CC(=O)O)NC(=O)[C@H](CC(C)C)NC(=O)[C@](C)(CC(C)C)NC(=O)[C@@H](NC(=O)[C@H](CO)NC(=O)[C@H](Cc1ccc(O)cc1)NC(=O)[C@H](CC(=O)O)NC(=O)[C@H](CO)NC(=O)[C@@H](NC(=O)[C@H](Cc1ccccc1)NC(=O)[C@@H](NC(=O)CNC(=O)[C@H](CCC(N)=O)NC(=O)C(C)(C)NC(=O)[C@@H](N)Cc1ccc(O)cc1)[C@@H](C)O)[C@@H](C)O)[C@@H](C)CC)C(=O)N[C@@H](CCC(=O)O)C(=O)N[C@@H](Cc1ccc(O)cc1)C(=O)N[C@@H](CC(C)C)C(=O)N[C@@H](CC(C)C)C(=O)N[C@@H](CCC(=O)O)C(=O)NC(C)(C)C(=O)NCC(=O)N1CCC[C@H]1C(=O)N[C@@H](CO)C(=O)N[C@@H](CO)C(=O)NC(C)(C)C(=O)N[C@@H](C)C(=O)N1CCC[C@H]1C(=O)N1CCC[C@H]1C(=O)N1CCC[C@H]1C(=O)N[C@@H](CO)C(N)=O) [EL.EX.14, reference compound]",Weight loss (%),"[1]; 10 nmol/kg QD, after 48 or 72 hours",11.0 ± 2.4%
"HAibQGT FTSDY SK*YLD YMMQRDFVQWLIEGGPSSGAPPPS (H[Aib]QGTFTSDYSK([AEEA-AEEA-γGlu-C18])YLDYMMQRDFVQWLIEGGPSSGAPPPS-NH2) [5-4D, K* = lysine lipidated with 2OEG-γGlu-C18]",Weight loss (%),[1]; [6],7.2 ± 0.9%
5-4A: Peptide No. 5-4 lipidated via conjugation to C-terminal cysteine (type A) (H[Aib]QGTFTSDYSKYLDYMMQRDFVQWLIEGGPSSGAPPPSC([AEEA-AEEA-γGlu-C18])-NH2),Weight loss (%),[1]; [5],8.3 ± 0.9%
"HAibQGT FTSDY SK*LLD YMMQRDFVQWLLEGGPSSGAPPPS (H[Aib]QGTFTSDYSK([AEEA-AEEA-γGlu-C18])LLDYMMQRDFVQWLLEGGPSSGAPPPS-NH2) [5-5D, K* = lysine lipidated with 2OEG-γGlu-C18]",Weight loss (%),[1]; [6],10.3 ± 1.3%
